The test system of data set [1] is A2780. Kind of data set: Cell viability assay, ovarian A2780. The following applies: Homo sapiens, A2780; 72 h, Ovarian; read-out: Antiproliferative activity GI50 A2780. The class given is cell-based. From the text:
(§1) Compounds from Example 1 were subjected to a standard MTT (3-(4,5-dimethylthiazol-2-yl)-2,5-diphenyltetrazolium bromide) and resazurin assays on solid tumour cell lines and leukemia cell lines, respectively, as previously reported (Wang S et al., J Med Chem 47:1662-1675, 2004 and Diab S. et al. CheMedChem 9:962-972, 2014).

Data set [2] relates to MV4-11. As to the kind of experiment: Cell viability assay (resazurin, leukemia cell line) MV4-11. The data set is classed as cell-based, human. To be noted: Homo sapiens, MV4-11, 72 h; read-out: Anti-proliferative activity GI50 MV4-11.
Source text: as §1
A general note: Alamar Blue is a resazurin reagent that responds to reducing activity.

Data set [3] deals with MV4-11 cells. Kind of data set: Cell cycle analysis (PI staining, flow cytometry). The data set is classed as cell-based, human. To be noted: MV4-11 cells treated for 24 h, FIG. 1. The procedure: Cell cycle analysis and apoptosis studies were performed as described previously (Diab S. et al. CheMedChem 9:962-972, 2014; Teo T., et al. Cancer Letters, 357(2):612-623, 2015). Briefly, human acute myeloid leukaemia MV4-11 cells (1×10^5) were seeded and incubated overnight at 37° C. and 5% CO2. Cells were centrifuged at 300×g for 5 min upon treatment with inhibitor. Cell pellets were collected and fixed with 70% ethanol on ice for 15 min, followed by centrifugation at 300×g for 5 min. The collected pellets were incubated with staining solution (50 μg/mL PI, 0.1 mg/mL ribonuclease A, 0.05% Triton X-100) at 37° C. for an hour and analysed with Gallios flow cytometer. 1×10^5 of the remaining cells were then used in an apoptotic assay with Annexin V-FITC Apoptosis Detection Kit. The samples were analysed by FACS within one hour of staining. Data were analysed using Kaluza v1.2.
In an example shown in FIG. 1, MV4-11 cells were treated with compound 60 for 24 hat the concentrations shown.
For orientation: Flow cytometry measures light scatter and fluorescence of single cells or particles in a stream.

Data set [4] is described as follows: Pharmacokinetics in rat. The data set is classed as in vivo, Wistar Rat. To be noted: male, Wistar, plasma, po, 40 mg/kg in rat. The procedure:
For pharmacokinetic measurements, healthy male adult Balb/C mice (weighing 20-25 g) or Wistar Rat (weighing 250-350 g) were split into weight matched groups of 3 per group. […] Blood samples were collected from animals by jugular vein cannula (rats) or under anaesthesia by cardiac puncture (mice) at time zero and at intervals up to 24 h. Harvested blood was centrifuged at 7000×G for 2 minutes, and the plasma aspirated and frozen at −20° C. until analysis. Quantitative analysis of compound in plasma was carried out using LC-MS/MS methods. Pharmacokinetic data derived using Phoenix WinNonlin 6.4® non-compartmental analysis. Oral bioavailability (% F) was calculated by taking the ratio of dose-normalised AUC values from oral versus parenteral (IV) dosing.

Data set [5] relates to D458. As to the kind of experiment: Cell viability assay, medulloblastoma D458. The following applies: Homo sapiens; 72 h, Medulloblastoma; read-out: Antiproliferative activity GI50 D458. The class given is cell-based.
Source text: as §1

The target in data set [6] is CDK 2A (Homo sapiens, UniProt P24941). As to the kind of experiment: Kinase assay CDK2A (radiometric profiling service). The data set is classed as biochemical. The following applies: apparent Ki calculated from Km (ATP) and IC50; read-out: CDK inhibition Ki CDK 2A. The procedure, abridged:
(§2)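 Radiometric inhibition data for CDKs came from Eurofins or Reaction Biology profiling services; CDK4/D1 was also run in-house by ADP-Glo in […] pH 7.5, 20 mM MgCl2, 0.4 mM DTT, 0.1 mg/ml BSA with RB-CTF substrate, 40 min at 37 °C after ATP start. Ten-point 1:3 dilutions (10 μM–0.5 nM); four-parameter IC50, Ki from IC50 and ATP Km.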

In data set [7] the test system is D283. As to the kind of experiment: Cell viability assay, medulloblastoma D283. The class given is cell-based. To be noted: Homo sapiens, D283; 72 h, Medulloblastoma; read-out: Antiproliferative activity GI50 D283.
Source text: as §1

For data set [8], the system named is MDA-MB-453. As to the kind of experiment: Cell viability assay (MTT, solid tumour cell line) MDA-MB-453. The data set is classed as cell-based, human. To be noted: Homo sapiens, MDA-MB-453, 72 h; read-out: Anti-proliferative activity GI50 MDA-MB-453.
Source text: as §1

In data set [9] the target is CDK1B (Homo sapiens, UniProt P06493). Kind of data set: Kinase assay CDK1B (radiometric profiling service). The data set is classed as biochemical. The following applies: apparent Ki calculated from Km (ATP) and IC50; read-out: CDK inhibition Ki CDK1B. The procedure, abridged:
as §2

Chain of CDK1B (P06493 whole entry): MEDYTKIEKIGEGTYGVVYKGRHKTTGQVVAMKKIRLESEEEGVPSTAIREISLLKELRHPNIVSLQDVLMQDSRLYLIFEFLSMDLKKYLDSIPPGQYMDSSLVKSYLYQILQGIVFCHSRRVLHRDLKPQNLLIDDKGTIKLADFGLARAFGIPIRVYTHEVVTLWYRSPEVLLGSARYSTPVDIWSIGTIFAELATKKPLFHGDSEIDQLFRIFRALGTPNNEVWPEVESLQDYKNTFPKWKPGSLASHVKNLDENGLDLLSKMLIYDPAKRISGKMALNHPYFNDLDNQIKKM
Chain of CDK1B (P14635 whole entry partner): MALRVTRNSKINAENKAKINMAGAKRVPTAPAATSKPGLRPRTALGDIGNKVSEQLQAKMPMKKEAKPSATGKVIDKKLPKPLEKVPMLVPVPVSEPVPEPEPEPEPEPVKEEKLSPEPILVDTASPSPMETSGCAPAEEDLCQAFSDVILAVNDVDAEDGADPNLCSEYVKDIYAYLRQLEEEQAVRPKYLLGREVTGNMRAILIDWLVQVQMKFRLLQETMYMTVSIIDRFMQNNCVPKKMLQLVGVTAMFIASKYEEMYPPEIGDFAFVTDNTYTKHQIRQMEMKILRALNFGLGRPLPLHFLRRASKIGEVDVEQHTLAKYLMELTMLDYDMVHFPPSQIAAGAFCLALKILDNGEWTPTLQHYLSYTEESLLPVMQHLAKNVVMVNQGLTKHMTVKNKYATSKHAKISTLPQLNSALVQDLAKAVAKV

In the case of `Cc1nc(NC2CCCC2)sc1-c1ccnc(Nc2ccc(N3CCNCC3)cn2)n1` [Compound 60, N-cyclopentyl-4-methyl-5-(2-((5-(piperazin-1-yl)pyridin-2-yl)amino)pyrimidin-4-yl)thiazol-2-amine], the GI50 in [1] amounted to 81 ± 1 nM; in data set [2], 23 ± 24 nM; in data set [5], 321 ± 68 nM; in data set [7], 124 ± 20 nM; in data set [8] it was 70 ± 13 nM. Moreover, the Cell cycle effect entry in [3] is “arrested cells in the G1 phase of the cell-cycle in a dose-dependent manner”. In addition, the AUC in [4] came to 6.6 µM·h. Besides, the highest concentration (Cmax) in [4] stood at 500 nM. In data set [4], the half-life was 16.4 h. Moreover, the bioavailability in [4] (vs IV dosing, read-out: Oral bioavailability (F %)) was 51%. The Ki in data set [6] and in data set [9] was more than 5000 nM each time.

As usually defined, the GI50 is the concentration that inhibits growth by half. In general, AUC refers to the area under the concentration-time curve, a measure of exposure. A lower AUC goes with low exposure. One may read the Cmax as the maximum level reached in the sampled fluid or tissue. Usually half-life stands for the time needed for the level to fall by half in the phase considered. Lower therefore signals rapid decline. As a reminder, the bioavailability is the share of a dose that reaches the circulation, judged against a reference dose that is usually intravenous.

Source of the values: patent USRE49850E1, “N-(pyridin-2-yl)-4-(thiazol-5-yl)pyrimidin-2-amine derivatives as therapeutic compounds” (AUCENTRA THERAPEUTICS PTY LTD, priority 2015, dated 2024).
